The record followed here is ChEMBL document CHEMBL3991601, “The target landscape of clinical kinase drugs” (Science, 2017).

Test [1] deals with Dual specificity protein kinase CLK2 (Homo sapiens, UniProt P49760).
Another test addresses T1, UMP-CMP kinase (Homo sapiens, UniProt P30085).
T1 sequence (P30085 whole entry): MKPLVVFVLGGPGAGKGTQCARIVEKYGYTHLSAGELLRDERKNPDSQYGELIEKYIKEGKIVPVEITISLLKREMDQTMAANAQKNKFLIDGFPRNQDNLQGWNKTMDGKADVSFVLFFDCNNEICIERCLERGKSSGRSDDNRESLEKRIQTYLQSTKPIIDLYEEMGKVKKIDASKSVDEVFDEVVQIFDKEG

Test [2] concerns the target T2, ATP-dependent RNA helicase DHX30 (Homo sapiens, UniProt Q7L2E3).
T2 sequence (Q7L2E3 whole entry): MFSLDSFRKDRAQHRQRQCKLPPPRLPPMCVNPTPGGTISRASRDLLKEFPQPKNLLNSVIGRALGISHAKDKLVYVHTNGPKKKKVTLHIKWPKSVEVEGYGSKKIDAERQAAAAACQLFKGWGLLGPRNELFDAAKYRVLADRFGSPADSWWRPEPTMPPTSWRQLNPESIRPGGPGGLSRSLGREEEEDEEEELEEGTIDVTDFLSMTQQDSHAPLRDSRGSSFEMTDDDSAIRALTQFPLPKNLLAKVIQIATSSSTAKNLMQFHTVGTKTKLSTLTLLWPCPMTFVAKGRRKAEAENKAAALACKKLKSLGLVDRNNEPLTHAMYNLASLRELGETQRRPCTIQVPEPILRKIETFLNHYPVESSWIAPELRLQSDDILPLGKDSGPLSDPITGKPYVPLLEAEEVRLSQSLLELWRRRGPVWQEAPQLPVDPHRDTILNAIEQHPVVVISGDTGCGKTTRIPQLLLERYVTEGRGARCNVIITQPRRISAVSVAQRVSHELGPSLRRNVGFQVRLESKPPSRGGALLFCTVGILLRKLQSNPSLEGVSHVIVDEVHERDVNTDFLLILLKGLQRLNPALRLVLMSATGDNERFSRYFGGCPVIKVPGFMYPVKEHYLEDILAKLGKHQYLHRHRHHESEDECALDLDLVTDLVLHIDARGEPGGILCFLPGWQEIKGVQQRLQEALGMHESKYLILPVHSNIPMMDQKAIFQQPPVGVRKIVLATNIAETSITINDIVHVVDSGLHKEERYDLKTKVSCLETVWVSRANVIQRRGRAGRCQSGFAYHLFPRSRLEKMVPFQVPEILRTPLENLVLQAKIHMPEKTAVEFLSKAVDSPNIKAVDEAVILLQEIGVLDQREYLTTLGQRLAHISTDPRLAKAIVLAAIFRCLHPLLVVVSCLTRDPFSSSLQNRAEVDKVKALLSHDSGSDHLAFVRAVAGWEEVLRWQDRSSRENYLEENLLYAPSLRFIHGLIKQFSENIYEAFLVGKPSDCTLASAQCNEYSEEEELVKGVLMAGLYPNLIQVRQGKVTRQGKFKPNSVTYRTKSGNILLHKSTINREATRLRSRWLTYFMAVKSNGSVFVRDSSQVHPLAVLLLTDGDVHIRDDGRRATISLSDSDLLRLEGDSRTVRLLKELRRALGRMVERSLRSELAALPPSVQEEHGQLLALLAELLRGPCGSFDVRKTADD

Test [3] concerns the target T3, Eukaryotic translation initiation factor 5B (Homo sapiens, UniProt O60841).
T3 sequence (O60841 whole entry): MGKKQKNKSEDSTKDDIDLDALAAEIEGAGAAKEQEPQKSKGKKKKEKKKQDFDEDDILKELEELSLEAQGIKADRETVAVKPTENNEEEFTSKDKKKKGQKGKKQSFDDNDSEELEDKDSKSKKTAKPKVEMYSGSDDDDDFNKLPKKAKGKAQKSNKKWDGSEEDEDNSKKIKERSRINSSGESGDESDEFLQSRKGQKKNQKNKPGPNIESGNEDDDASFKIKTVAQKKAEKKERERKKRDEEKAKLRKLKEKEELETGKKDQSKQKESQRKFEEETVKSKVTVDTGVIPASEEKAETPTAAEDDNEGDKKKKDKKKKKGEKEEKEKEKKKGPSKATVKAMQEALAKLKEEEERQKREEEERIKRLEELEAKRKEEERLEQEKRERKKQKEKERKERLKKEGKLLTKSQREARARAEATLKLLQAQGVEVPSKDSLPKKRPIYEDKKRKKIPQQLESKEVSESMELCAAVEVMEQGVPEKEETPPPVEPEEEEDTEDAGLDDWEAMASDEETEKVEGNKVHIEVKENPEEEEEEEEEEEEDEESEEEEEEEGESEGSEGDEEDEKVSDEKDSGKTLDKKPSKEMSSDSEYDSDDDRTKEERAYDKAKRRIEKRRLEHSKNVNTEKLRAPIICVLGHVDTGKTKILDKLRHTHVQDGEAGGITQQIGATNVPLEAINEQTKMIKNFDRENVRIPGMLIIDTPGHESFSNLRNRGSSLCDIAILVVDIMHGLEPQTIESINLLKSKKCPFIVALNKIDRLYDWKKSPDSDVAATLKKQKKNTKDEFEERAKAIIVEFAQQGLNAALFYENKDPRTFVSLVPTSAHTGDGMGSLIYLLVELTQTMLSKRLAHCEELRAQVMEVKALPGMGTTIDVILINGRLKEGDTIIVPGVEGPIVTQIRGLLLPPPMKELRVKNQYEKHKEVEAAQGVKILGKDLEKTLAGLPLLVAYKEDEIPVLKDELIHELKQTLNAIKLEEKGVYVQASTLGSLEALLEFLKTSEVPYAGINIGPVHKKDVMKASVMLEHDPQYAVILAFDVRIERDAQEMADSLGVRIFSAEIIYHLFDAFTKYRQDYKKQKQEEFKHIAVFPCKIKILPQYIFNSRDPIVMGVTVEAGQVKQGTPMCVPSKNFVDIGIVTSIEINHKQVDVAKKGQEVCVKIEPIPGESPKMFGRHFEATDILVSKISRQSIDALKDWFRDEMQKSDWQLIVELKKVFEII

Test [4] addresses G protein-coupled receptor kinase 6 (Homo sapiens, UniProt P43250).
The target in test [5] is Tyrosine-protein kinase Lck (Homo sapiens, UniProt P06239).
Test [6] deals with Hepatocyte growth factor receptor (Homo sapiens, UniProt P08581).
A further test concerns the target Myosin-10 (Homo sapiens, UniProt P35580).
The target in test [7] is Rho-associated protein kinase 1 (Homo sapiens, UniProt Q13464).
The target of test [8] is Dual specificity testis-specific protein kinase 2 (Homo sapiens, UniProt Q96S53).
Test [9] concerns the target Uncharacterized aarF domain-containing protein kinase 5 (Homo sapiens, UniProt Q3MIX3).

The source made the active and inactive calls.
Also: in the data inactive means no Kd found up to 30 µM.

Dual specificity testis-specific protein kinase 2, sequence (Q96S53 whole entry, the tested form may be a part): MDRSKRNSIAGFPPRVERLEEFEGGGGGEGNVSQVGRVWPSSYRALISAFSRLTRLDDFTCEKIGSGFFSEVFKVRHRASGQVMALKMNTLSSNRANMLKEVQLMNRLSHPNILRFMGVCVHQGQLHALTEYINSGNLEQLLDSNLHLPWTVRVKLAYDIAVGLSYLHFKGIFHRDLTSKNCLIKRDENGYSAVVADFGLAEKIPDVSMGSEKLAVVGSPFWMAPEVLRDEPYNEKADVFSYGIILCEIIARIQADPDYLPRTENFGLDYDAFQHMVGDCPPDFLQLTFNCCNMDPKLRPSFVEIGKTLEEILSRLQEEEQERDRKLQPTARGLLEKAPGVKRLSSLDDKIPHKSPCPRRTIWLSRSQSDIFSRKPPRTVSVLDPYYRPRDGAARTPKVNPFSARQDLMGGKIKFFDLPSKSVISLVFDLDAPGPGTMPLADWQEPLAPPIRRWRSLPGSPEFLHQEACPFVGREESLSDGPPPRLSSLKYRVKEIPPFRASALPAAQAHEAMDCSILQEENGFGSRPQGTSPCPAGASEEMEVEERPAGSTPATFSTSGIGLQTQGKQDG
G protein-coupled receptor kinase 6, sequence (P43250 whole entry): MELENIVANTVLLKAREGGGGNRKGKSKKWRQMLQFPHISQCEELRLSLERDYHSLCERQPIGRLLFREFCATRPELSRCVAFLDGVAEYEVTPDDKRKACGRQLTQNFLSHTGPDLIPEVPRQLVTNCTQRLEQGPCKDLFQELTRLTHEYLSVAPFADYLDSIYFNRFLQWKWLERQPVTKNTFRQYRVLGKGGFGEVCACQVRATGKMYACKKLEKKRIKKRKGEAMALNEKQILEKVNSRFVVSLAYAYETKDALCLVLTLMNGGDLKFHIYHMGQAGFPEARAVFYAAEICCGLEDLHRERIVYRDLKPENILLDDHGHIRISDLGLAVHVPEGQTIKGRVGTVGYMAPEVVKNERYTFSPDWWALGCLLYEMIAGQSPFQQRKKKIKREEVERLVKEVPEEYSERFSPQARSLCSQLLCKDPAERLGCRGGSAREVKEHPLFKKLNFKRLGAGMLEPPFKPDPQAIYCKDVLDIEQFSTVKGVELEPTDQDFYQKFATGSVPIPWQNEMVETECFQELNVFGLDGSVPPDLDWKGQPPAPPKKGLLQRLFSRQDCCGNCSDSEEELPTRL
Myosin-10, sequence (P35580 whole entry): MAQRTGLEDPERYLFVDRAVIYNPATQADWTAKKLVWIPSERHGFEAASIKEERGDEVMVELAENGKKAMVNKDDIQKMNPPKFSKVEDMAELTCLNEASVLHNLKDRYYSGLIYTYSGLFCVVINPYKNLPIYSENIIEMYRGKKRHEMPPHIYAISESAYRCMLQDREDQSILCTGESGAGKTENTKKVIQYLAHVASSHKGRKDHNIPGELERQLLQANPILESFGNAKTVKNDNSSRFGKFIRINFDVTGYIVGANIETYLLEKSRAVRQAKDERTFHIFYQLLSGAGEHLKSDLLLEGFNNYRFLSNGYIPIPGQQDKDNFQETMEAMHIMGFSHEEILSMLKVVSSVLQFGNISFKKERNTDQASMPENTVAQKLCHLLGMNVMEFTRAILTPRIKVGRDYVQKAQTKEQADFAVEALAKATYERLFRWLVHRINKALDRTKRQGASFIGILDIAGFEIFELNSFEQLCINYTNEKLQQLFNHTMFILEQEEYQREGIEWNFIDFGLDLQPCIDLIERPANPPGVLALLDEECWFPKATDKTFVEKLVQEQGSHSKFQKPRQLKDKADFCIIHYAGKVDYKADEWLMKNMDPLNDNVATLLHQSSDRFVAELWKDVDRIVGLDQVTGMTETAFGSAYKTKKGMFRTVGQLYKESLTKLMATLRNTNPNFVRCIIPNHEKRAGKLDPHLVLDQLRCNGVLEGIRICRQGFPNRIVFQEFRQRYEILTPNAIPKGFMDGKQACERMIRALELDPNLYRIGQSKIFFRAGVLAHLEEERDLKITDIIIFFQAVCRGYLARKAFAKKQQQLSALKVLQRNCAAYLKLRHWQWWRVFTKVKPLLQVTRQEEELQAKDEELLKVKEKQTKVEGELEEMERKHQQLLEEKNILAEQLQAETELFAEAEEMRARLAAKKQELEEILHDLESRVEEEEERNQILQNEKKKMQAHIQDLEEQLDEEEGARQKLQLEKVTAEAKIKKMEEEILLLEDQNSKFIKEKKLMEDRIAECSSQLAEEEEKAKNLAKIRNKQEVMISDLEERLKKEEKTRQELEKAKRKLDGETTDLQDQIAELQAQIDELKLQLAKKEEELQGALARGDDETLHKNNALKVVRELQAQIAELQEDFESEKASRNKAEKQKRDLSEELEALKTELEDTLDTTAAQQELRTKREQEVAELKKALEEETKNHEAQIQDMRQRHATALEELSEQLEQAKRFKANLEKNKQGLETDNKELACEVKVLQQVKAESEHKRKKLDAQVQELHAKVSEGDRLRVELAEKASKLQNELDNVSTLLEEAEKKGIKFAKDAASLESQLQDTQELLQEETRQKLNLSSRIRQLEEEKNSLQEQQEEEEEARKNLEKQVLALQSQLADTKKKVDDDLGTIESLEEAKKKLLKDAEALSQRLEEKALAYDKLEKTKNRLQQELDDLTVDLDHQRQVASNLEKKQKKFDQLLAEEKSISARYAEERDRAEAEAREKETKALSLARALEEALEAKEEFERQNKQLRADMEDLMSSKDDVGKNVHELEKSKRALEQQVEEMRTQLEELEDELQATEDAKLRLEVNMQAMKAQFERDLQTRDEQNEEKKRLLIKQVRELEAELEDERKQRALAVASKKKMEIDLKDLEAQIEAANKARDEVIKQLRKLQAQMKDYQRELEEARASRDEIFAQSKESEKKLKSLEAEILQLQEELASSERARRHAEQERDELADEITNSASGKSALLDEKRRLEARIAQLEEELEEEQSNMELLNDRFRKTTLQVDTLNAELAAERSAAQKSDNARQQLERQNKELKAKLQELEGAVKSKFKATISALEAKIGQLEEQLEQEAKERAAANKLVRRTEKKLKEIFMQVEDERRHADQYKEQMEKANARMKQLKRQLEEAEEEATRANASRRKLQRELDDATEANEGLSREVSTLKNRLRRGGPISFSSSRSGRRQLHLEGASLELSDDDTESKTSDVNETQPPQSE
Dual specificity protein kinase CLK2, sequence (P49760 whole entry): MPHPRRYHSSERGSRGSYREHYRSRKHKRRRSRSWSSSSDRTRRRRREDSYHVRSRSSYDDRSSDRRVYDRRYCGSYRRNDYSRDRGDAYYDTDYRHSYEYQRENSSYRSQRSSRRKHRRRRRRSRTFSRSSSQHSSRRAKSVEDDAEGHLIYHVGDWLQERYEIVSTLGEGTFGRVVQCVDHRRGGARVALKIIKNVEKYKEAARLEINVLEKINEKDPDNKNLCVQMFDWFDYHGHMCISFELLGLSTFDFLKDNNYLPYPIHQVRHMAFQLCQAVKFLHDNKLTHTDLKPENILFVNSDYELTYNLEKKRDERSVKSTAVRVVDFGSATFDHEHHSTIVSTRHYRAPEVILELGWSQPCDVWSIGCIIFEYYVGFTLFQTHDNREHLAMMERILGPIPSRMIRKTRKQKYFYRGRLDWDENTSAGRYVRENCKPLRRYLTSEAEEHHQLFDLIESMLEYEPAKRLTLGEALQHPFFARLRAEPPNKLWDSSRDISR
Rho-associated protein kinase 1, sequence (Q13464 whole entry): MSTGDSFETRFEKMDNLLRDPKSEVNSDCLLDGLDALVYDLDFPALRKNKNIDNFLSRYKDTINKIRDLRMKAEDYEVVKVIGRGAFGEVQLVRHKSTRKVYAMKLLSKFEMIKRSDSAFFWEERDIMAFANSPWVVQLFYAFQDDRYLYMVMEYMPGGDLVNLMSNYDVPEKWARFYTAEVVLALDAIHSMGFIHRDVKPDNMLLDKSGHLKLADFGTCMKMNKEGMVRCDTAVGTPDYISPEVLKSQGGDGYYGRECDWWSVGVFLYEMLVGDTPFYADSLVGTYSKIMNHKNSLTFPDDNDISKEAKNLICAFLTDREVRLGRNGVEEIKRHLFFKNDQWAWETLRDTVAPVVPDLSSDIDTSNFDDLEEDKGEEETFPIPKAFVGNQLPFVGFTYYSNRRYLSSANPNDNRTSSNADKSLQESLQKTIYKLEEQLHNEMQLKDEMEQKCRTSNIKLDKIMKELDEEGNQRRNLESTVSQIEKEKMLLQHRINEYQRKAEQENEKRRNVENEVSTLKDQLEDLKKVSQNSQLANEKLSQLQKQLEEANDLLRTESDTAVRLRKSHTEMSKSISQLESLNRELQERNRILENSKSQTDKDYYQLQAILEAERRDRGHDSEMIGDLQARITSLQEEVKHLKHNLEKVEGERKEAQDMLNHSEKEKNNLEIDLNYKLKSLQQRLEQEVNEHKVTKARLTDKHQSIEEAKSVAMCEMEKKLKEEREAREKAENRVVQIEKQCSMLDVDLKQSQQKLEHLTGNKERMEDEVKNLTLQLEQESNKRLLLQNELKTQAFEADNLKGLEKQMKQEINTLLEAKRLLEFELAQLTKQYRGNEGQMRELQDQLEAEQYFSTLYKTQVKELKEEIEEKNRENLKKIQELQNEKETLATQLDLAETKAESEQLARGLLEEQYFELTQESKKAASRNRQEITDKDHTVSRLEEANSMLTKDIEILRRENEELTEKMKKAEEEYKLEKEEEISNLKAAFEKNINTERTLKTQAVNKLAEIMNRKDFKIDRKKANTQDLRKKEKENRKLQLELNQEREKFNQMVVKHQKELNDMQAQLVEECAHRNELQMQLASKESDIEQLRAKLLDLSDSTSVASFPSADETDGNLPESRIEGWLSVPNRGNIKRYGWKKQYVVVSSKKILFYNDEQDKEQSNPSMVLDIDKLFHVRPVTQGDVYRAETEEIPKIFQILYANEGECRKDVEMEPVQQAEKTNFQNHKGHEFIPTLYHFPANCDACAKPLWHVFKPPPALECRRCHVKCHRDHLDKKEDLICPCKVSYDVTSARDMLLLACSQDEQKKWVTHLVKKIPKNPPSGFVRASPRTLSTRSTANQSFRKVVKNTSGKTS

As for `S=C(NCc1ccc2c(c1)OCO2)N1CCN(c2ncnc3c2oc2ccccc23)CC1` [AMUVATINIB], the Kd (in [1]; at UMP-CMP kinase; in [2]; in test [3]; in [4]; in test [5]) was > 30 µM (inactive) in each case. In addition, the Kd (in [6]; on Myosin-10; in test [7]) was > 30 µM (inactive) each time.

`COc1cccc2cc(-c3nc([C@H]4CC[C@H](C(=O)O)CC4)n4ncnc(N)c34)[nH]c12` [OSI-027]: the Kd (in [1]; on UMP-CMP kinase; in test [2]; in test [3]; in test [4]; in test [5]) was > 30 µM (inactive) throughout. Also, the Kd (at Myosin-10; in test [7]) was > 30 µM (inactive) each time.

On to `COc1cc2ncnc(Nc3ccc(O)cc3)c2cc1OC` [WHI-P131], for which the Kd (in test [1]; on UMP-CMP kinase; in [2]; in test [3]; in [5]; in test [6]) was > 30 µM (inactive) throughout. In addition, the Kd (on Myosin-10; in test [7]; in test [8]) was > 30 µM (inactive) each time.

In the case of `O=C(Nc1ccc(OC(F)(F)F)cc1)c1sccc1NCc1ccnc2ccccc12` [OSI-930], the Kd in test [9], in test [1], in [2], in test [3], in [4] and in [5] was > 30 µM (inactive) throughout. The Kd (in [6]; on Myosin-10; in test [7]; in test [8]) was > 30 µM (inactive) in each case.

On to `N#CCNC(=O)c1ccc(-c2ccnc(Nc3ccc(N4CCOCC4)cc3)n2)cc1` [MOMELOTINIB], for which the Kd (in general, the constant that tells how readily two partners part at equilibrium) was > 30 µM (inactive) in test [1], > 30 µM (inactive) on UMP-CMP kinase and 1.36 µM (active) in test [7].

Turning to `Cn1cnc2c(F)c(Nc3ccc(Br)cc3Cl)c(C(=O)NOCCO)cc21` [SELUMETINIB], the Kd (on UMP-CMP kinase; in test [3]; on Myosin-10; in test [8]) was > 30 µM (inactive) in each case.

In the case of `NC(=O)c1ccc(N(C(N)=O)c2c(F)cccc2F)nc1-c1ccc(F)cc1F` [VX-702], the Kd (in test [1]; at UMP-CMP kinase; in test [2]; in test [3]; in [5]; in test [6]) was > 30 µM (inactive) each time. Also, the Kd in [7] and in test [8] was > 30 µM (inactive) throughout.

For the compound `C=CC(=O)Nc1cc(Nc2nccc(-c3cn(C)c4ccccc34)n2)c(OC)cc1N(C)CCN(C)C` [OSIMERTINIB], the Kd (in [1]; at UMP-CMP kinase; in [2]; in test [3]; in [4]; in [5]) was > 30 µM (inactive) each time. Further, the Kd (at Myosin-10; in [7]; in test [8]) was > 30 µM (inactive) each time.

With `Cn1c(=O)c(F)c(Nc2ccc(I)cc2F)c2c(=O)n(C[C@@H](O)CO)cnc21` [TAK-733], the Kd in test [9], in [1], in test [2], in test [3], in test [4] and in [5] was > 30 µM (inactive) each time. Also, the Kd (in test [6]; on Myosin-10; in test [7]; in test [8]) was > 30 µM (inactive) each time.

As for `NC[C@@](O)(c1ccc(Cl)cc1)c1ccc(-c2cn[nH]c2)cc1` [AT-13148], the Kd (in test [1]; on UMP-CMP kinase; in test [3]; in test [5]; in [6]; on Myosin-10) was > 30 µM (inactive) each time. Besides, the Kd in test [7] is 0.027 µM (active).

Take `COc1cc2nccc(Oc3ccc(NC(=O)C4(C(=O)Nc5ccc(F)cc5)CC4)cc3)c2cc1OC` [CABOZANTINIB]: the Kd in [1] was > 30 µM (inactive); at UMP-CMP kinase it was > 30 µM (inactive); in [2], > 30 µM (inactive); in test [3], > 30 µM (inactive); in test [5] it was 1.05 µM (active); at Myosin-10, > 30 µM (inactive). Also, the Kd in test [7] was > 30 µM (inactive).

Turning to `Cc1c(Cn2c(C)nc3c(C(=O)O)cc(N4CCOCC4)cc32)cccc1C(F)(F)F` [GSK-2636771], the Kd (in test [1]; on UMP-CMP kinase; in [4]; in [5]; in test [6]; in test [7]) was > 30 µM (inactive) each time. Also, in [8], the Kd is > 30 µM (inactive).

Take `O=C(NC[C@H](O)CO)c1ccncc1Nc1ccc(I)cc1F` [PIMASERTIB]: the Kd (in [1]; at UMP-CMP kinase; in [2]; in [3]; in [5]; in test [6]) was > 30 µM (inactive) in each case. Moreover, the Kd (on Myosin-10; in test [7]; in test [8]) was > 30 µM (inactive) each time.
